Results published in US7462600B2, “Macrolides” (Pfizer Inc, priority 2004, dated 2008).
In brackets after ≈: the same amount, converted by molar mass. Where two headings read alike, the source gives them in different places.

Columns and labels:
Format in all cases: cell-based
[1] = tested on: Streptococcus pyogenes 1079; assay: MIC, microtiter broth dilution (NCCLS M100-S14), S. pyogenes 1079 (ermB)
Procedure, shortened: (§1)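 Broth dilution was run in microtiter trays and read per NCCLS M100-S14 to give MICs. Compounds came from 40 mg/ml DMSO stock solutions. The strain panel paired macrolide-susceptible parents with macrolide-resistant derivatives.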

[2] = tested on: Streptococcus pneumoniae 1016; assay: MIC, microtiter broth dilution (NCCLS M100-S14), S. pneumoniae 1016 (susceptible)
Procedure, shortened: as §1

[3] = tested on: Streptococcus pneumoniae 1095; conditions: microtiter broth dilution
Procedure, shortened: as §1

[4] = tested on: Streptococcus pneumoniae 1175; conditions: microtiter broth dilution
Procedure, shortened: as §1

[5] = tested on: Haemophilus influenzae 1218; assay: MIC, microtiter broth dilution (NCCLS M100-S14), H. influenzae 1218 (susceptible)
Procedure, shortened: as §1

[6] = S. pneumoniae 1016 (susceptible)
[7] = H. influenzae 1218 (susceptible)

Row | SMILES | MIC S. pyogenes 1079 ([1]; Streptococcus pyogenes 1079) | MIC S. pneumo. 1016 ([2]; Streptococcus pneumoniae 1016) | MIC S. pneumo. 1095 ([3]; Streptococcus pneumoniae 1095) | MIC S. pneumo. 1175 ([4]; Streptococcus pneumoniae 1175) | MIC H. influenzae 1218 ([5]; Haemophilus influenzae 1218) | MIC S. pyogenes 1079 ([1]; S. pyogenes 1079 (ermB)) | MIC S. pneumo. 1016 [2, 6] | MIC S. pneumo. 1095 ([3]; S. pneumoniae 1095 (ermB)) | MIC S. pneumo. 1175 ([4]; S. pneumoniae 1175 (mefA)) | MIC H. influenzae 1218 [5, 7]
1 | CCC1OC(=O)C(C)C(=O)C(C)C(OC2OC(C)CC(N(C)C)C2O)C(C)(OC)CC(C)C(=O)C(C)C2N(C3CN(Cc4ccnc5ncccc45)C3)C(=O)OC12C (stereo not drawn) [Example 1.20, 3-descladinosyl-11,12-dideoxy-6-O-methyl-3-oxo-12,11-(oxycarbonyl-(1-((1,8-naphthyridin-4-yl)-methyl)-azetidin-3-yl)-imino)erythromycin A] | 1 µg/mL (≈ 1.23 µM) | <0.06 µg/mL | <0.06 µg/mL | 0.12 µg/mL (≈ 0.148 µM) | 0.25 µg/mL (≈ 0.309 µM) | – | – | – | – | –
2 | CCC1OC(=O)C(C)C(=O)C(C)C(OC2OC(C)CC(N(C)C)C2O)C(C)(OC)CC(C)C(=O)C(C)C2N(CC3CCCN3C(=O)c3ccnc4ccccc34)C(=O)OC12C.O=CO (stereo not drawn) [10.10] | – | – | – | – | – | >64.00 µg/mL | <0.06 µg/mL | <0.06 µg/mL | 1 µg/mL | 4 µg/mL
3 | CCC1OC(=O)C(C)C(=O)C(C)C(OC2OC(C)CC(N(C)C)C2O)C(C)(OC)CC(C)C(=O)C(C)C2N(CC3CCCN3C(=O)c3cn4cccnc4n3)C(=O)OC12C (stereo not drawn) [10.43] | – | – | – | – | – | >64.00 µg/mL | <0.06 µg/mL | <0.06 µg/mL | 0.25 µg/mL (≈ 0.297 µM) | 1 µg/mL (≈ 1.19 µM)
4 | CC[C@H]1OC(=O)[C@H](C)C(=O)[C@H](C)[C@@H](O[C@@H]2O[C@H](C)C[C@H](N(C)C)[C@H]2O)[C@](C)(OC)C[C@@H](C)C(=O)[C@H](C)[C@H]2N(C3CN([C@H](C)c4ccnc5ncccc45)C3)C(=O)O[C@]12C [Example 1.25, 3-descladinosyl-11,12-dideoxy-6-O-methyl-3-oxo-12,11-(oxycarbonyl-(1-(1R-(1,8-naphthyridin4-yl)-ethyl)-azetidin-3-yl)-imino)-erythromycin A] | 1 µg/mL (≈ 1.21 µM) | <0.06 µg/mL | <0.06 µg/mL | 0.25 µg/mL (≈ 0.303 µM) | 0.5 µg/mL (≈ 0.607 µM) | – | – | – | – | –
5 | CCC1OC(=O)C(C)C(=O)C(C)C(OC2OC(C)CC(N(C)C)C2O)C(C)(OC)CC(C)C(=O)C(C)C2N(C3CN(S(=O)(=O)c4cccc5c(C#N)cccc45)C3)C(=O)OC12C (stereo not drawn) [Example 3.49] | 0.5 µg/mL (≈ 0.566 µM) | <0.06 µg/mL | <0.06 µg/mL | <0.06 µg/mL | 0.5 µg/mL (≈ 0.566 µM) | – | – | – | – | –
6 | CCC1OC(=O)C(C)C(=O)C(C)C(OC2OC(C)CC(N(C)C)C2O)C(C)(OC)CC(C)C(=O)C(C)C2N(C3CN(Cc4cnc5ncccc5c4)C3)C(=O)OC12C (stereo not drawn) [Example 1.17, (1,8-naphthyridin-3-yl)methyl] | >64.00 µg/mL | <0.06 µg/mL | <0.06 µg/mL | 0.25 µg/mL (≈ 0.309 µM) | 0.12 µg/mL (≈ 0.148 µM) | – | – | – | – | –
7 | CCC1OC(=O)C(C)C(=O)C(C)C(OC2OC(C)CC(N(C)C)C2O)C(C)(OC)CC(C)C(=O)C(C)C2N(CC3CCN(C(=O)c4ccc5ncccc5c4)C3)C(=O)OC12C (stereo not drawn) [13.12] | – | – | – | – | – | >64.00 µg/mL | <0.06 µg/mL | >64.00 µg/mL | 0.5 µg/mL (≈ 0.588 µM) | 4 µg/mL (≈ 4.7 µM)
8 | CCC1OC(=O)C(C)C(=O)C(C)C(OC2OC(C)CC(N(C)C)C2O)C(C)(OC)CC(C)C(=O)C(C)C2N(C3CN(S(=O)(=O)c4cccc(F)c4)C3)C(=O)OC12C (stereo not drawn) [Example 3.08, 3-fluorobenzenesulfonyl] | 16 µg/mL (≈ 19.4 µM) | <0.06 µg/mL | <0.06 µg/mL | <0.06 µg/mL | 0.5 µg/mL (≈ 0.605 µM) | – | – | – | – | –
9 | CCC1OC(=O)C(C)C(=O)C(C)C(OC2OC(C)CC(N(C)C)C2O)C(C)(OC)CC(C)C(=O)C(C)C2N(C3CN(Cc4cc(OC)nc5ccccc45)C3)C(=O)OC12C (stereo not drawn) [Example 1.39, (2-methoxyquinolin-4-yl)methyl] | 16 µg/mL (≈ 19.1 µM) | <0.06 µg/mL | <0.06 µg/mL | 0.25 µg/mL (≈ 0.298 µM) | 1 µg/mL (≈ 1.19 µM) | – | – | – | – | –
10 | CCC1OC(=O)C(C)C(=O)C(C)C(OC2OC(C)CC(N(C)C)C2O)C(C)(OC)CC(C)C(=O)C(C)C2N(CC3CCCN3C(=O)c3cn4ccccc4n3)C(=O)OC12C (stereo not drawn) [10.54] | – | – | – | – | – | 64 µg/mL (≈ 76.2 µM) | <0.06 µg/mL | <0.06 µg/mL | 0.25 µg/mL (≈ 0.298 µM) | 1 µg/mL (≈ 1.19 µM)
11 | CCCC(c1ccnc2ccccc12)N1CC(N2C(=O)OC3(C)C(CC)OC(=O)C(C)C(=O)C(C)C(OC4OC(C)CC(N(C)C)C4O)C(C)(OC)CC(C)C(=O)C(C)C23)C1 (stereo not drawn) [Example 1.65, 3-descladinosyl-11,12-dideoxy-6-O-methyl-3-oxo-12,11-(oxycarbonyl-(1-(1-(quinolin4-yl)-butyl)-azetidin-3-yl)-imino)-erythromycin A] | 8 µg/mL (≈ 9.4 µM) | <0.06 µg/mL | <0.06 µg/mL | <0.06 µg/mL | 1 µg/mL (≈ 1.17 µM) | – | – | – | – | –
12 | CCC1OC(=O)C(C)C(=O)C(C)C(OC2OC(C)CC(N(C)C)C2O)C(C)(OC)CC(C)C(=O)C(C)C2N(C3CN(S(=O)(=O)c4cccc5cnccc45)C3)C(=O)OC12C (stereo not drawn) [Example 3.04, 3-descladinosyl-11,12-dideoxy-6-O-methyl-3-oxo-12,11-(oxycarbonyl-(1-(isoquinoline-5-sulfonyl)-azetidin-3-yl)-imino)-erythromycin A] | 0.12 µg/mL (≈ 0.14 µM) | <0.06 µg/mL | <0.06 µg/mL | <0.06 µg/mL | 0.25 µg/mL (≈ 0.291 µM) | – | – | – | – | –
13 | CCC1OC(=O)C(C)C(=O)C(C)C(OC2OC(C)CC(N(C)C)C2O)C(C)(OC)CC(C)C(=O)C(C)C2N(C3CN(S(=O)(=O)c4cccc(-c5cnco5)c4)C3)C(=O)OC12C (stereo not drawn) [Example 3.35, 3-descladinosyl-11,12-dideoxy-6-O-methyl-3-oxo-12,11-(oxycarbonyl-(1-(3-(oxazol-5-yl)benzenesulfonyl)-azetidin-3-yl)-imino)-erythromycin A] | 1 µg/mL (≈ 1.14 µM) | <0.06 µg/mL | <0.06 µg/mL | <0.06 µg/mL | 0.12 µg/mL (≈ 0.137 µM) | – | – | – | – | –
14 | CCC1OC(=O)C(C)C(=O)C(C)C(OC2OC(C)CC(N(C)C)C2O)C(C)(OC)CC(C)C(=O)C(C)C2N(C3CN(Cc4ccnc5cccnc45)C3)C(=O)OC12C (stereo not drawn) [Example 1.26, 3-descladinosyl-11,12-dideoxy-6-O-methyl-3-oxo-12,11-(oxycarbonyl-(1-((1,5-naphthyridin4-yl)-methyl)-azetidin-3-yl)-imino)-erythromycin A] | 1 µg/mL (≈ 1.23 µM) | <0.06 µg/mL | <0.06 µg/mL | <0.06 µg/mL | 0.38 µg/mL (≈ 0.469 µM) | – | – | – | – | –
15 | CCC1OC(=O)C(C)C(=O)C(C)C(OC2OC(C)CC(N(C)C)C2O)C(C)(OC)CC(C)C(=O)C(C)C2N(CC3CCCN3C(=O)c3cnn4cccnc34)C(=O)OC12C (stereo not drawn) [10.51] | – | – | – | – | – | >64.00 µg/mL | <0.06 µg/mL | <0.06 µg/mL | 0.5 µg/mL (≈ 0.595 µM) | 1 µg/mL (≈ 1.19 µM)
16 | CCC1OC(=O)C(C)C(=O)C(C)C(OC2OC(C)CC(N(C)C)C2O)C(C)(OC)CC(C)C(=O)C(C)C2N(CC3CN(Cc4ccn(-c5ccccn5)n4)C3)C(=O)OC12C.O=CO (stereo not drawn) [4.31] | >64.00 µg/mL | <0.06 µg/mL | 32 µg/mL | <0.06 µg/mL | 0.5 µg/mL | – | – | – | – | –
17 | CCC1OC(=O)C(C)C(=O)C(C)C(OC2OC(C)CC(N(C)C)C2O)C(C)(OC)CC(C)C(=O)C(C)C2N(CC3CCN(Cc4c[nH]c5cnccc45)C3)C(=O)OC12C (stereo not drawn) [13.03] | – | – | – | – | – | >64.00 µg/mL | <0.06 µg/mL | 1 µg/mL (≈ 1.21 µM) | 4 µg/mL (≈ 4.84 µM) | 2 µg/mL (≈ 2.42 µM)
18 | CCC1OC(=O)C(C)C(=O)C(C)C(OC2OC(C)CC(N(C)C)C2O)C(C)(OC)CC(C)C(=O)C(C)C2N(CC3CCCN3C(=O)c3nccc4ccccc34)C(=O)OC12C.O=CO (stereo not drawn) [10.17] | – | – | – | – | – | >64.00 µg/mL | <0.06 µg/mL | <0.06 µg/mL | 0.12 µg/mL | 0.5 µg/mL
